Data published in the supplement of paper PMC11451515.

Legend:
Details in all cases: 48 h
NOMO1 [1] = assay: cell viability relative to DMSO control; higher = less cytotoxic
Outline: (§1)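 Three leukemia lines were tested: NOMO1 and SEM at 500 cells/well and P12-Ichikawa at 1000 cells/well. Each was adapted for at least four passages in each medium and seeded in 5 μl in 1536-well plates, and library compounds in DMSO were pin-dosed from 47 μM to 0.79 nM in 11 threefold steps. After 48 h at 37°C, CellTiter-Glo One luminescence was read. Viability is a percentage relative to DMSO wells on each plate, with cell-free wells as background.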

P12-Ichikawa [2] = assay: as above
Outline: as §1

SEM cells [3] = assay: as above
Outline: as §1

NOMO1 [4] = assay: AUC of viability dose-response curve (% viability x log10 dose units); higher = less sensitive
Outline: (§2)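 Leukemia cells adapted to each medium were seeded in 1536-well plates (500 or 1000 cells/well). They were dosed with library compounds in DMSO at 11 threefold doses, 47 μM to 0.79 nM, for 48 h at 37°C. CellTiter-Glo One luminescence was normalised per plate to DMSO and cell-free wells. Area under the curve was integrated by trapezoidal rule over log10 doses on a four-parameter log-logistic fit; curves exceeding full viability were scaled and curves failing quality control removed.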

P12-Ichikawa [5] = assay: as above
Outline: as §2

SEM cells [6] = assay: as above
Outline: as §2

CN(C)CCOc1cc(-c2cn[nH]c2)ccc1NC(=O)C1COc2ccccc2O1 (stereo not drawn)
cell viability [%]
Details | NOMO1 [1] | P12-Ichikawa [2] | SEM cells [3]
HPLM + 10% dialyzed FBS, 0.000781 µM | 84.2 | 105 | 87.1
HPLM + 10% dialyzed FBS, 0.00234 µM | 104 | 112 | 84.6
HPLM + 10% dialyzed FBS, 0.00702 µM | 118 | 103 | 101
HPLM + 10% dialyzed FBS, 0.0211 µM | 122 | 107 | 105
HPLM + 10% dialyzed FBS, 0.0632 µM | 118 | 114 | 106
HPLM + 10% dialyzed FBS, 0.19 µM | 106 | 117 | 106
HPLM + 10% dialyzed FBS, 0.569 µM | 119 | 110 | 98.5
HPLM + 10% dialyzed FBS, 1.71 µM | 107 | 104 | 102
HPLM + 10% dialyzed FBS, 5.12 µM | 122 | 98.7 | 80.1
HPLM + 10% dialyzed FBS, 15.4 µM | 93.9 | 95.3 | 71.7
HPLM + 10% dialyzed FBS, 46.1 µM | 67.1 | 95.3 | 56.2
RPMI 5 mM glucose + 10% FBS, 0.000781 µM | 105 | 107 | 101
RPMI 5 mM glucose + 10% FBS, 0.00234 µM | 93.2 | 113 | 95
RPMI 5 mM glucose + 10% FBS, 0.00702 µM | 110 | 115 | 108
RPMI 5 mM glucose + 10% FBS, 0.0211 µM | 127 | 112 | 94.9
RPMI 5 mM glucose + 10% FBS, 0.0632 µM | 94.7 | 117 | 118
RPMI 5 mM glucose + 10% FBS, 0.19 µM | 97.5 | 118 | 90.7
RPMI 5 mM glucose + 10% FBS, 0.569 µM | 114 | 128 | 103
RPMI 5 mM glucose + 10% FBS, 1.71 µM | 96.3 | 113 | 96
RPMI 5 mM glucose + 10% FBS, 5.12 µM | 85.4 | 107 | 105
RPMI 5 mM glucose + 10% FBS, 15.4 µM | 81.5 | 88.8 | 69.3
RPMI 5 mM glucose + 10% FBS, 46.1 µM | 64.3 | 84.1 | 61.3
RPMI 5 mM glucose + 10% dialyzed FBS, 0.000781 µM | 98.5 | 105 | 107
RPMI 5 mM glucose + 10% dialyzed FBS, 0.00234 µM | 100 | 122 | 101
RPMI 5 mM glucose + 10% dialyzed FBS, 0.00702 µM | 106 | 123 | 110
RPMI 5 mM glucose + 10% dialyzed FBS, 0.0211 µM | 112 | 116 | 108
RPMI 5 mM glucose + 10% dialyzed FBS, 0.0632 µM | 114 | 122 | 94.6
RPMI 5 mM glucose + 10% dialyzed FBS, 0.19 µM | 97.7 | 125 | 104
RPMI 5 mM glucose + 10% dialyzed FBS, 0.569 µM | 102 | 128 | 93.1
RPMI 5 mM glucose + 10% dialyzed FBS, 1.71 µM | 96.9 | 118 | 102
RPMI 5 mM glucose + 10% dialyzed FBS, 5.12 µM | 91.5 | 109 | 98.3
RPMI 5 mM glucose + 10% dialyzed FBS, 15.4 µM | 71.8 | 95.8 | 71.8
RPMI 5 mM glucose + 10% dialyzed FBS, 46.1 µM | 77 | 97.2 | 68.9

AUC of viability dose-response curve
Details | NOMO1 [4] | P12-Ichikawa [5] | SEM cells [6]
HPLM + 10% dialyzed FBS | 460 | 449 | 439
RPMI 5 mM glucose + 10% FBS | 442 | 455 | 453
RPMI 5 mM glucose + 10% dialyzed FBS | 447 | 459 | 453

C[C@H](NC(=O)/C(C#N)=C/c1cccc(Br)n1)c1ccccc1
cell viability [%]
Details | NOMO1 [1] | P12-Ichikawa [2] | SEM cells [3]
HPLM + 10% dialyzed FBS, 0.000781 µM | – | 107 | 89.8
HPLM + 10% dialyzed FBS, 0.00234 µM | – | 113 | 102
HPLM + 10% dialyzed FBS, 0.00702 µM | – | 112 | 98.7
HPLM + 10% dialyzed FBS, 0.0211 µM | – | 121 | 109
HPLM + 10% dialyzed FBS, 0.0632 µM | – | 119 | 118
HPLM + 10% dialyzed FBS, 0.19 µM | – | 122 | 112
HPLM + 10% dialyzed FBS, 0.569 µM | – | 120 | 103
HPLM + 10% dialyzed FBS, 1.71 µM | – | 45.1 | 40.7
HPLM + 10% dialyzed FBS, 5.12 µM | – | 7.82 | 8.01
HPLM + 10% dialyzed FBS, 15.4 µM | – | 7.53 | 6.81
HPLM + 10% dialyzed FBS, 46.1 µM | – | 7.45 | 6.6
RPMI 5 mM glucose + 10% FBS, 0.000781 µM | 104 | 112 | 91.1
RPMI 5 mM glucose + 10% FBS, 0.00234 µM | 104 | 119 | 98.2
RPMI 5 mM glucose + 10% FBS, 0.00702 µM | 123 | 112 | 102
RPMI 5 mM glucose + 10% FBS, 0.0211 µM | 112 | 111 | 107
RPMI 5 mM glucose + 10% FBS, 0.0632 µM | 119 | 118 | 91.9
RPMI 5 mM glucose + 10% FBS, 0.19 µM | 98.1 | 125 | 97.6
RPMI 5 mM glucose + 10% FBS, 0.569 µM | 103 | 131 | 93.2
RPMI 5 mM glucose + 10% FBS, 1.71 µM | 87.7 | 88.3 | 13
RPMI 5 mM glucose + 10% FBS, 5.12 µM | 19 | 9.63 | 7.6
RPMI 5 mM glucose + 10% FBS, 15.4 µM | 8.24 | 6.78 | 6.42
RPMI 5 mM glucose + 10% FBS, 46.1 µM | 7.32 | 6.3 | 6.63
RPMI 5 mM glucose + 10% dialyzed FBS, 0.000781 µM | 99.5 | 111 | 74.5
RPMI 5 mM glucose + 10% dialyzed FBS, 0.00234 µM | 115 | 109 | 116
RPMI 5 mM glucose + 10% dialyzed FBS, 0.00702 µM | 109 | 113 | 102
RPMI 5 mM glucose + 10% dialyzed FBS, 0.0211 µM | 114 | 111 | 122
RPMI 5 mM glucose + 10% dialyzed FBS, 0.0632 µM | 107 | 109 | 104
RPMI 5 mM glucose + 10% dialyzed FBS, 0.19 µM | 129 | 126 | 116
RPMI 5 mM glucose + 10% dialyzed FBS, 0.569 µM | 115 | 121 | 108
RPMI 5 mM glucose + 10% dialyzed FBS, 1.71 µM | 93.8 | 79.2 | 38.2
RPMI 5 mM glucose + 10% dialyzed FBS, 5.12 µM | 38.8 | 9.86 | 8.38
RPMI 5 mM glucose + 10% dialyzed FBS, 15.4 µM | 8.68 | 7.21 | 7.55
RPMI 5 mM glucose + 10% dialyzed FBS, 46.1 µM | 6.9 | 6.61 | 7.44

AUC of viability dose-response curve
Details | NOMO1 [4] | P12-Ichikawa [5] | SEM cells [6]
HPLM + 10% dialyzed FBS | 348 | 336 | 336
RPMI 5 mM glucose + 10% FBS | 361 | 353 | 316
RPMI 5 mM glucose + 10% dialyzed FBS | 371 | 351 | 336

C/C=C(/C)C(=O)O[C@H]1C(C)=C2[C@H]([C@@H]1OC(=O)CCCCCCC)[C@@](C)(OC(C)=O)C[C@H](OC(=O)CCC)[C@@]1(O)[C@H]2OC(=O)[C@@]1(C)O
cell viability [%]
Details | NOMO1 [1] | P12-Ichikawa [2] | SEM cells [3]
HPLM + 10% dialyzed FBS, 0.000781 µM | 100 | 103 | 95
HPLM + 10% dialyzed FBS, 0.00234 µM | 110 | 114 | 112
HPLM + 10% dialyzed FBS, 0.00702 µM | 99.4 | 111 | 111
HPLM + 10% dialyzed FBS, 0.0211 µM | 127 | 109 | 101
HPLM + 10% dialyzed FBS, 0.0632 µM | 56.6 | 104 | 57
HPLM + 10% dialyzed FBS, 0.19 µM | 12.5 | 71 | 13.1
HPLM + 10% dialyzed FBS, 0.569 µM | 7.29 | 38.5 | 8.77
HPLM + 10% dialyzed FBS, 1.71 µM | 4.31 | 51.5 | 7.59
HPLM + 10% dialyzed FBS, 5.12 µM | 2.9 | 67 | 7.07
HPLM + 10% dialyzed FBS, 15.4 µM | 2.91 | 69.8 | 6.17
HPLM + 10% dialyzed FBS, 46.1 µM | 5 | 75.2 | 6.69
RPMI 5 mM glucose + 10% FBS, 0.000781 µM | 112 | 120 | 105
RPMI 5 mM glucose + 10% FBS, 0.00234 µM | 112 | 129 | 112
RPMI 5 mM glucose + 10% FBS, 0.00702 µM | 130 | 107 | 113
RPMI 5 mM glucose + 10% FBS, 0.0211 µM | 119 | 125 | 85.7
RPMI 5 mM glucose + 10% FBS, 0.0632 µM | 92.7 | 96.8 | 23.8
RPMI 5 mM glucose + 10% FBS, 0.19 µM | 17 | 66.4 | 10.4
RPMI 5 mM glucose + 10% FBS, 0.569 µM | 9.53 | 22.1 | 6.8
RPMI 5 mM glucose + 10% FBS, 1.71 µM | 10.4 | 23.8 | 6.65
RPMI 5 mM glucose + 10% FBS, 5.12 µM | 6.41 | 46 | 7.69
RPMI 5 mM glucose + 10% FBS, 15.4 µM | 3.83 | 48.2 | 5.62
RPMI 5 mM glucose + 10% FBS, 46.1 µM | 5.08 | 42.4 | 6.01
RPMI 5 mM glucose + 10% dialyzed FBS, 0.000781 µM | 117 | 109 | 107
RPMI 5 mM glucose + 10% dialyzed FBS, 0.00234 µM | 121 | 121 | 138
RPMI 5 mM glucose + 10% dialyzed FBS, 0.00702 µM | 129 | 123 | 114
RPMI 5 mM glucose + 10% dialyzed FBS, 0.0211 µM | 123 | 112 | 82.7
RPMI 5 mM glucose + 10% dialyzed FBS, 0.0632 µM | 68 | 95.7 | 33.8
RPMI 5 mM glucose + 10% dialyzed FBS, 0.19 µM | 13.4 | 52.6 | 9.51
RPMI 5 mM glucose + 10% dialyzed FBS, 0.569 µM | 8.71 | 13.3 | 7.63
RPMI 5 mM glucose + 10% dialyzed FBS, 1.71 µM | 10.1 | 8.27 | 5.08
RPMI 5 mM glucose + 10% dialyzed FBS, 5.12 µM | 7.55 | 16.7 | 4.94
RPMI 5 mM glucose + 10% dialyzed FBS, 15.4 µM | 5.66 | 20.3 | 3.37
RPMI 5 mM glucose + 10% dialyzed FBS, 46.1 µM | 5.67 | 22.7 | 3.69

AUC of viability dose-response curve
Details | NOMO1 [4] | P12-Ichikawa [5] | SEM cells [6]
HPLM + 10% dialyzed FBS | 206 | 364 | 211
RPMI 5 mM glucose + 10% FBS | 224 | 297 | 183
RPMI 5 mM glucose + 10% dialyzed FBS | 211 | 257 | 174
